Source: patent US20250179083A1, “TRICYCLIC TRIAZOLO COMPOUNDS AS DGK INHIBITORS” (Incyte Corporation, priority 2023, published 2025)

Assays:
DGKα = target: T1, DGKα (Homo sapiens, UniProt P23743); test: In vitro DGKα inhibition assay (ADP-Glo); assay type: biochemical; details: His-tagged human recombinant DGKα 0.1 nM, 50 μM ATP, 20 μM DLG, 90 minute incubation
T1 construct: His; purchased Signal Chem D21-10BH
Outline: (§1)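 His-tagged human DGKα (0.1 nM, 50 μM ATP) or DGKζ (0.4 nM, 30 μM ATP), each with 20 μM DLG lipid substrate, in Tris pH 7.5 buffer with Mg2+, Ca2+, CHAPS.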

DGKζ = target: T2, DGKζ (Homo sapiens, UniProt Q13574); test: In vitro DGKζ inhibition assay (ADP-Glo); assay type: biochemical; details: His-tagged human recombinant DGKζ 0.4 nM, 30 μM ATP, 20 μM DLG, 90 minute incubation
T2 construct: His; purchased Signal Chem D30-10H
Outline: as §1

T2 sequence (Q13574 whole entry): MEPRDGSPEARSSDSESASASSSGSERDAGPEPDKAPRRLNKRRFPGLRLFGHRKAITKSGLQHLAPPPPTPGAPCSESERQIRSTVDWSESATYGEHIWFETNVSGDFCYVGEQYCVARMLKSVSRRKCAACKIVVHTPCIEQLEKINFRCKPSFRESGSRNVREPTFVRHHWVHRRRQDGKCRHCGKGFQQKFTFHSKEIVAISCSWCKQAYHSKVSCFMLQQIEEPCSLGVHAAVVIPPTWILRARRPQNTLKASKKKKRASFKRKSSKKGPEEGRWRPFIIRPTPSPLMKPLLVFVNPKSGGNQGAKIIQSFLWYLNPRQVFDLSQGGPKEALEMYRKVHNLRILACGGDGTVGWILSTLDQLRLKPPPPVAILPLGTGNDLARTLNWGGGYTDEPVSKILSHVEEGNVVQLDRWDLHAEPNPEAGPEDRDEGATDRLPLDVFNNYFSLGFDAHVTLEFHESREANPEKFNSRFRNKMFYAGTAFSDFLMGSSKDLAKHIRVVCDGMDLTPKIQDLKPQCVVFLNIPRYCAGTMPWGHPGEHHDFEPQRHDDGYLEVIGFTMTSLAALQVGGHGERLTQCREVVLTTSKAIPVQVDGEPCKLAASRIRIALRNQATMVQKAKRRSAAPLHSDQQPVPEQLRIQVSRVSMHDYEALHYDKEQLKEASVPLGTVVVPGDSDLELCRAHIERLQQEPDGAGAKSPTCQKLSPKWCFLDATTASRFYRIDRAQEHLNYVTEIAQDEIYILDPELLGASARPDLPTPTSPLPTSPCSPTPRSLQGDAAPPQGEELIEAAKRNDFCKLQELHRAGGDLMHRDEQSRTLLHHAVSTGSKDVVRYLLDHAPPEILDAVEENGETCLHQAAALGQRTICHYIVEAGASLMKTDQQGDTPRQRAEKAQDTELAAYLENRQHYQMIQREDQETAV
T1 sequence (P23743 whole entry): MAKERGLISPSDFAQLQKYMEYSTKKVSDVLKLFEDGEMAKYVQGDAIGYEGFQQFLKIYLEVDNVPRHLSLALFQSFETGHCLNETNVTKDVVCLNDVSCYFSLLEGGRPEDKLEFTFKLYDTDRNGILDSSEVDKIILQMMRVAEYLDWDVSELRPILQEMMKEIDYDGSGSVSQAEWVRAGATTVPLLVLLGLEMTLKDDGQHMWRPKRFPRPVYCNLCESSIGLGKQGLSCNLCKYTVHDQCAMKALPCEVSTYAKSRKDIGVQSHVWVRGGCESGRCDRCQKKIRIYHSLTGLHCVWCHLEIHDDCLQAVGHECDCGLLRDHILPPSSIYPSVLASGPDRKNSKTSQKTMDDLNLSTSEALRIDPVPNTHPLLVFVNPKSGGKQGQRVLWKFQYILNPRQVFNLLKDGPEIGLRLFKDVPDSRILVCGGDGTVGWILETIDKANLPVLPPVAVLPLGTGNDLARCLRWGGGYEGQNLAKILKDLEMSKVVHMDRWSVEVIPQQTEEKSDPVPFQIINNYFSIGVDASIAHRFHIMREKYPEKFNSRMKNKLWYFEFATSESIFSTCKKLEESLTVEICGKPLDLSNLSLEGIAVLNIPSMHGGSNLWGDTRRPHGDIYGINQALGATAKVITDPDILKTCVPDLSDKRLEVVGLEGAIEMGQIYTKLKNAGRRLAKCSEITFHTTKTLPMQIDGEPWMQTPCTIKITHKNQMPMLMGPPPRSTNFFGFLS

| Compound | IC50 (DGKα) [nM] | IC50 (DGKζ) [nM] |
| --- | --- | --- |
| Cc1nc2c(N3C[C@@H](C)N(Cc4ccc(C(F)(F)F)cc4F)C[C@@H]3C)nc3nncn3c2n1C[C@@H]1CCCO1 [Example 37, 4-((2S,5R)-4-(2-Fluoro-4-(trifluoromethyl)benzyl)-2,5-dimethylpiperazin-1-yl)-2-methyl-1-(((S)-tetrahydrofuran-2-yl)methyl)-1H-[1,2,4]triazolo[3,4-b]purine] | < 20 | < 20 |
| Cc1nc2c(N3C[C@@H](C)N(Cc4c(F)cc(Cl)cc4F)C[C@@H]3C)nc3nncn3c2n1C[C@@H]1CCCO1 [Example 73, 4-((2S,5R)-4-(4-Chloro-2,6-difluorobenzyl)-2,5-dimethylpiperazin-1-yl)-2-methyl-1-(((S)-tetrahydrofuran-2-yl)methyl)-1H-[1,2,4]triazolo[3,4-b]purine] | < 20 | < 20 |
| Cc1nc2c(N3C[C@@H](C)N(C(c4ccc(C(F)F)cc4F)C(C)C)C[C@@H]3C)nc3nncn3c2n1C[C@@H]1CCCO1 (stereo partly drawn) [Example 25, 4-((2S,5R)-4-(1-(4-(Difluoromethyl)-2-fluorophenyl)-2-methylpropyl)-2,5-dimethylpiperazin-1-yl)-2-methyl-1-(((S)-tetrahydrofuran-2-yl)methyl)-1H-[1,2,4]triazolo[3,4-b]purine] | < 20 | < 20 |
| Cc1nc2c(N3C[C@@H](C)N(C(CC(C)C)c4ccc(Cl)cc4)C[C@@H]3C)nc3nncn3c2n1C[C@@H]1CCCO1 (single isomer, unassigned) [Example 53] | < 20 | < 20 |
| C[C@@H]1CN(c2nc3nncn3c3c2ncn3C[C@@H]2CCCO2)[C@@H](C)CN1C(C[C@@H](C)C(F)(F)F)c1ccc(Cl)c(F)c1 (single isomer, unassigned) [Example 16] | < 20 | < 20 |
| Cc1nc2c(N3C[C@@H](C)N(Cc4ccc(Cl)cc4)C[C@@H]3C)nc3nncn3c2n1C[C@@H]1CCCO1 [Example 70, 4-((2S,5R)-4-(4-Chlorobenzyl)-2,5-dimethylpiperazin-1-yl)-2-methyl-1-(((S)-tetrahydrofuran-2-yl)methyl)-1H-[1,2,4]triazolo[3,4-b]purine] | < 20 | < 20 |
| COc1ccc(C(C(C)C)N2C[C@H](C)N(c3nc4nncn4c4c3nc(C)n4C[C@@H]3CCCO3)C[C@H]2C)cc1F (stereo partly drawn) [Example 24, 4-((2S,5R)-4-(1-(3-fluoro-4-methoxyphenyl)-2-methylpropyl)-2,5-dimethylpiperazin-1-yl)-2-methyl-1-(((S)-tetrahydrofuran-2-yl)methyl)-1H-[1,2,4]triazolo[3,4-b]purine] | < 20 | < 20 |
| Cc1nc2c(N3C[C@@H](C)N([C@@H](c4ccc(Cl)cc4)[C@H]4CC4(F)F)C[C@@H]3C)nc3nncn3c2n1C[C@@H]1CCCO1 (single isomer, unassigned) [Example 56] | < 20 | < 20 |
| C[C@@H]1CN(c2nc3nncn3c3c2ncn3C[C@@H]2CCCO2)[C@@H](C)CN1C(c1ccc(C(F)(F)F)cc1)C1CC(F)(F)C1 (single isomer, unassigned) [Example 1] | < 20 | < 20 |
| C[C@@H]1CN(c2nc3nncn3c3c2ncn3C[C@@H]2CCCO2)[C@@H](C)CN1C(c1ccc(C(F)(F)F)cn1)c1ccc(C(F)(F)F)cn1 [Example 19, 4-((2S,5R)-4-(Bis(5-(trifluoromethyl)pyridin-2-yl)methyl)-2,5-dimethylpiperazin-1-yl)-1-(((S)-tetrahydrofuran-2-yl)methyl)-1H-[1,2,4]triazolo[3,4-b]purine] | < 20 | < 20 |
| Cc1nc2c(N3C[C@@H](C)N(C(CC(C)C)c4ccc(Cl)c(F)c4)C[C@@H]3C)nc3nncn3c2n1C[C@@H]1CCCO1 (single isomer, unassigned) [Example 18] | < 20 | < 20 |
| CC(C)CC(c1ccc(C(F)(F)F)cc1)N1C[C@H](C)N(c2nc3nncn3c3c2ncn3C[C@@H]2CCCO2)C[C@H]1C (single isomer, unassigned) [Example 14] | < 20 | < 20 |
| Cc1nc2c(N3C[C@@H](C)N(C(c4ccc(Cl)cc4)C4CC(F)(F)C4)C[C@@H]3C)cc3nncn3c2n1C[C@@H]1CCCO1 (single isomer, unassigned) [Example 62] | < 20 | < 20 |
| Cc1nc2c(N3C[C@@H](C)N(Cc4ccc(C(F)(F)F)c(F)c4)C[C@@H]3C)nc3nncn3c2n1C[C@@H]1CCCO1 [Example 75, 4-((2S,5R)-4-(3-Fluoro-4-(trifluoromethyl)benzyl)-2,5-dimethylpiperazin-1-yl)-2-methyl-1-(((S)-tetrahydrofuran-2-yl)methyl)-1H-[1,2,4]triazolo[3,4-b]purine] | < 20 | < 20 |
| C[C@@H]1CN(c2nc3nncn3c3c2ncn3C[C@@H]2CCCO2)[C@@H](C)CN1Cc1ccc(Cl)c(F)c1 [Example 77, 4-((2S,5R)-4-(4-Chloro-3-fluorobenzyl)-2,5-dimethylpiperazin-1-yl)-1-(((S)-tetrahydrofuran-2-yl)methyl)-1H-[1,2,4]triazolo[3,4-b]purine] | < 20 | < 20 |
| Cc1nc2c(N3C[C@@H](C)N(Cc4ccc(C(F)(F)F)cc4F)C[C@@H]3C)cc3nncn3c2n1C[C@@H]1CCCO1 [Example 69, 4-((2S,5R)-4-(2-Fluoro-4-(trifluoromethyl)benzyl)-2,5-dimethylpiperazin-1-yl)-2-methyl-1-(((S)-tetrahydrofuran-2-yl)methyl)-1H-imidazo[4,5-e][1,2,4]triazolo[4,3-a]pyridine] | < 20 | < 20 |
| C[C@@H]1CN(c2nc3nncn3c3c2ncn3C[C@@H]2CCCO2)[C@@H](C)CN1C(c1ccc(Cl)cc1F)C1CC(F)(F)C1 (stereo partly drawn) [Example 31, 4-((2S,5R)-4-((4-Chloro-2-fluorophenyl)(3,3-difluorocyclobutyl)methyl)-2,5-dimethylpiperazin-1-yl)-1-(((S)-tetrahydrofuran-2-yl)methyl)-1H-[1,2,4]triazolo[3,4-b]purine] | < 20 | < 20 |
| Cc1nc2c(N3C[C@H]4CC[C@@H](C3)N4C(c3ccc(C(F)(F)F)cc3)C3CC(F)(F)C3)nc3nncn3c2n1C[C@@H]1CCCO1 (stereo partly drawn) [Example 81, 4-((1R,5S)-8-((3,3-Difluorocyclobutyl)(4-(trifluoromethyl)phenyl)methyl)-3,8-diazabicyclo[3.2.1]octan-3-yl)-2-methyl-1-(((S)-tetrahydrofuran-2-yl)methyl)-1H-[1,2,4]triazolo[3,4-b]purine] | < 20 | < 20 |
| Cc1nc2c(N3C[C@@H](C)N([C@@H](c4ccc5cc(C(F)(F)F)ccc5n4)C(C)C)C[C@@H]3C)nc3nncn3c2n1C[C@@H]1CCCO1 [Example 64, 4-((2S,5R)-2,5-dimethyl-4-((R)-2-methyl-1-(6-(trifluoromethyl)quinolin-2-yl)propyl)piperazin-1-yl)-2-methyl-1-(((S)-tetrahydrofuran-2-yl)methyl)-1H-[1,2,4]triazolo[3,4-b]purine] | < 20 | < 20 |
| C[C@@H]1CN(c2nc3nncn3c3c2ncn3C[C@@H]2CCCO2)[C@@H](C)CN1C(c1ccc(Br)cc1)C1CC(F)(F)C1 (stereo partly drawn) [Example 33, 4-((2S,5R)-4-((4-Bromophenyl)(3,3-difluorocyclobutyl)methyl)-2,5-dimethylpiperazin-1-yl)-1-(((S)-tetrahydrofuran-2-yl)methyl)-1H-[1,2,4]triazolo[3,4-b]purine] | < 20 | < 20 |
| C[C@@H]1CN(c2nc3nncn3c3c2ncn3C[C@@H]2CCCO2)[C@@H](C)CN1C(c1ccc(C(F)F)c(F)c1)C1CC(F)(F)C1 (stereo partly drawn) [Example 2, 4-((2S,5R)-4-((3,3-Difluorocyclobutyl)(4-(difluoromethyl)-3-fluorophenyl)methyl)-2,5-dimethylpiperazin-1-yl)-1-(((S)-tetrahydrofuran-2-yl)methyl)-1H-[1,2,4]triazolo[3,4-b]purine] | < 20 | < 20 |
| C[C@@H]1CN(c2nc3nncn3c3c2ncn3C[C@@H]2CCCO2)[C@@H](C)CN1C(c1ccc(Cl)cc1)[C@@H]1CC1(F)F (single isomer, unassigned) [Example 6] | < 20 | < 20 |
| CC[C@@H]1CN(c2nc3nncn3c3c2nc(C)n3C[C@@H]2CCCO2)[C@@H](C)CN1[C@@H](C)c1ccc(C(F)(F)F)cc1 [Example 41, 4-((2S,5R)-5-Ethyl-2-methyl-4-((S)-1-(4-(trifluoromethyl)phenyl)ethyl)piperazin-1-yl)-2-methyl-1-(((S)-tetrahydrofuran-2-yl)methyl)-1H-[1,2,4]triazolo[3,4-b]purine] | < 20 | < 20 |
| Cc1nc2c(N3C[C@@H](C)N(Cc4cc(F)c(Cl)c(C(F)(F)F)c4)C[C@@H]3C)nc3nncn3c2n1C[C@@H]1CCCO1 [Example 74, 4-((2S,5R)-4-(4-Chloro-3-fluoro-5-(trifluoromethyl)benzyl)-2,5-dimethylpiperazin-1-y1)-2-methyl-1-(((S)-tetrahydrofuran-2-yl)methyl)-1H-[1,2,4]triazolo[3,4-b]purine] | < 20 | < 20 |
| C[C@@H]1CN(c2nc3nncn3c3c2ncn3C[C@@H]2CCCO2)[C@@H](C)CN1Cc1ccc(C(F)(F)F)cc1 [Example 40, 4-((2S,5R)-2,5-Dimethyl-4-(4-(trifluoromethyl)benzyl)piperazin-1-yl)-1-(((S)-tetrahydrofuran-2-yl)methyl)-1H-[1,2,4]triazolo[3,4-b]purine] | < 20 | < 20 |
